Calls of active or inactive are those of the source. How the calls were made is not given here.
Test system: CCRIS mutagenicity, Ames/micronucleus/aberration tests
Assay: CCRIS mutagenicity studies
[1] = Test System: AMES SALMONELLA TYPHIMURIUM, Strain/Indicator: TA98, Metabolic Activation: NONE, Method: PREINCUBATION
[2] = Test System: AMES SALMONELLA TYPHIMURIUM, Strain/Indicator: TA98, Metabolic Activation: NONE, Method: STANDARD PLATE
[3] = Test System: AMES SALMONELLA TYPHIMURIUM, Strain/Indicator: TA98, Metabolic Activation: RAT, LIVER, S-9, AROCLOR 1254, Method: STANDARD PLATE
[4] = Test System: AMES SALMONELLA TYPHIMURIUM, Strain/Indicator: TA100, Metabolic Activation: NONE, Method: PREINCUBATION
[5] = Test System: AMES SALMONELLA TYPHIMURIUM, Strain/Indicator: TA100, Metabolic Activation: NONE, Method: STANDARD PLATE
[6] = Test System: AMES SALMONELLA TYPHIMURIUM, Strain/Indicator: TA100, Metabolic Activation: RAT, LIVER, S-9, AROCLOR 1254, Method: STANDARD PLATE
[7] = Test System: AMES SALMONELLA TYPHIMURIUM, Strain/Indicator: TA1538, Metabolic Activation: RAT, LIVER, S-9, AROCLOR 1254, Method: STANDARD PLATE
[8] = Test System: MOUSE LYMPHOMA, Strain/Indicator: L5178Y (TK+/TK-), Metabolic Activation: NONE, Method: SUSPENSION/PLATE
[9] = Test System: AMES SALMONELLA TYPHIMURIUM, Strain/Indicator: TA98, Metabolic Activation: RAT, LIVER, S-9, AROCLOR 1254, Method: PREINCUBATION
[10] = Test System: AMES SALMONELLA TYPHIMURIUM, Strain/Indicator: TA100, Metabolic Activation: RAT, LIVER, S-9, AROCLOR 1254, Method: PREINCUBATION
[11] = Test System: AMES SALMONELLA TYPHIMURIUM, Strain/Indicator: TA100, Metabolic Activation: RAT, LIVER, S-9, PHENOBARBITAL, Method: PREINCUBATION

Nc1ccc(N=Nc2ccc3c(c2)C(=O)/C(=N/Nc2ccc(Nc4ccc(N/N=C5/C(=O)c6cc(N=Nc7ccc(N)cc7N)ccc6C=C5S(=O)(=O)O)cc4S(=O)(=O)O)cc2)C(S(=O)(=O)O)=C3)c(N)c1
mutagenic call (Test System: AMES SALMONELLA TYPHIMURIUM, Strain/Indicator: TA98, Metabolic Activation: HAMSTER LIVER S-9, Method: PREINCUBATION): active; positive
mutagenic call (Test System: AMES SALMONELLA TYPHIMURIUM, Strain/Indicator: TA98, Metabolic Activation: HAMSTER, LIVER, S-9, AROCLOR 1254, Method: STANDARD PLATE): active; positive
mutagenic call (Test System: AMES SALMONELLA TYPHIMURIUM, Strain/Indicator: TA98, Metabolic Activation: HAMSTER, LIVER, S-9, Method: PREINCUBATION (PRIVAL METHOD)): active; positive
mutagenic call [1]: active; positive
mutagenic call [2]: active; positive
mutagenic call (Test System: AMES SALMONELLA TYPHIMURIUM, Strain/Indicator: TA98, Metabolic Activation: RAT LIVER S-9, AROCLOR 1254, Method: PREINCUBATION): active; positive
mutagenic call [3]: active; positive
mutagenic call (Test System: AMES SALMONELLA TYPHIMURIUM, Strain/Indicator: TA100, Metabolic Activation: HAMSTER LIVER S-9, Method: PREINCUBATION): active; positive
mutagenic call (Test System: AMES SALMONELLA TYPHIMURIUM, Strain/Indicator: TA100, Metabolic Activation: HAMSTER, LIVER, S-9, AROCLOR 1254, Method: STANDARD PLATE): inactive; negative
mutagenic call [4]: inactive; negative
mutagenic call [5]: inactive; negative
mutagenic call (Test System: AMES SALMONELLA TYPHIMURIUM, Strain/Indicator: TA100, Metabolic Activation: RAT LIVER S-9, AROCLOR 1254, Method: PREINCUBATION): inactive; negative
mutagenic call [6]: inactive; negative
mutagenic call (Test System: AMES SALMONELLA TYPHIMURIUM, Strain/Indicator: TA1535, Metabolic Activation: HAMSTER, LIVER, S-9, AROCLOR 1254, Method: STANDARD PLATE): active; positive
mutagenic call (Test System: AMES SALMONELLA TYPHIMURIUM, Strain/Indicator: TA1535, Metabolic Activation: NONE, Method: STANDARD PLATE): inactive; negative
mutagenic call (Test System: AMES SALMONELLA TYPHIMURIUM, Strain/Indicator: TA1535, Metabolic Activation: RAT, LIVER, S-9, AROCLOR 1254, Method: STANDARD PLATE): inactive; negative
mutagenic call (Test System: AMES SALMONELLA TYPHIMURIUM, Strain/Indicator: TA1537, Metabolic Activation: HAMSTER, LIVER, S-9, AROCLOR 1254, Method: STANDARD PLATE): active; positive
mutagenic call (Test System: AMES SALMONELLA TYPHIMURIUM, Strain/Indicator: TA1537, Metabolic Activation: RAT, LIVER, S-9, AROCLOR 1254, Method: STANDARD PLATE): active; positive
mutagenic call (Test System: AMES SALMONELLA TYPHIMURIUM, Strain/Indicator: TA1538, Metabolic Activation: HAMSTER, LIVER, S-9, AROCLOR 1254, Method: STANDARD PLATE): active; positive
mutagenic call (Test System: AMES SALMONELLA TYPHIMURIUM, Strain/Indicator: TA1538, Metabolic Activation: NONE, Method: STANDARD PLATE): active; positive
mutagenic call [7]: active; positive
mutagenic call [8]: inactive; negative
mutagenic call (Test System: MOUSE LYMPHOMA, Strain/Indicator: L5178Y (TK+/TK-), Metabolic Activation: RAT, LIVER, S-9, AROCLOR 1254, Method: SUSPENSION/PLATE): inactive; negative

Cc1nn(C)c(N)c1C(=O)c1ccccc1F
mutagenic call [9]: active; positive
mutagenic call [3]: active; positive
mutagenic call (Test System: AMES SALMONELLA TYPHIMURIUM, Strain/Indicator: TA98, Metabolic Activation: RAT, LIVER, S-9, PHENOBARBITAL, Method: PREINCUBATION): active; positive
mutagenic call [10]: active; positive
mutagenic call [6]: active; positive
mutagenic call [11]: active; positive

O=c1cc(CO)occ1O
mutagenic call (End Point: IN VIVO MICRONUCLEUS, Test System: HEPATOCYTES, Species: RAT, Strain/Sex: FISHER 344 OR SD/MALE, Route: ORAL OR IP): inactive; negative
mutagenic call (End Point: IN VIVO MICRONUCLEUS, Test System: PERIPHERAL BLOOD RETICULOCYTES, Species: RAT, Strain/Sex: FISHER 344 OR SD/MALE, Route: ORAL OR IP): active; positive
mutagenic call (End Point: In vivo micronucleus, Test System: Mononucleated hepatocytes/1000 hepatocytes, Species: Mouse, Strain/Sex: Ddy/Male, Route: Oral): active; positive (dose related increase, significant only at high dose)
mutagenic call (End Point: In vivo micronucleus, Test System: Mononucleated hepatocytes/1000 hepatocytes, Species: Rat, Strain/Sex: F344/Male, Route: Oral): active; positive (dose related increase, significant only at high dose)
mutagenic call [1]: active; positive
mutagenic call [2]: active; positive
mutagenic call [9]: active; positive
mutagenic call [3]: active; positive
mutagenic call [5]: active; positive
mutagenic call (Test System: AMES SALMONELLA TYPHIMURIUM, Strain/Indicator: TA100, Metabolic Activation: RAT, LIVER, MICROSOMES, PHENOBARBITAL, Method: STANDARD PLATE): active; positive
mutagenic call [10]: inactive; negative
mutagenic call [6]: active; positive
mutagenic call [11]: inactive; negative
mutagenic call (Test System: Ames Salmonella typhimurium, Strain/Indicator: TA100, Metabolic Activation: None, Method: Preincubation): active; positive
mutagenic call (Test System: Ames Salmonella typhimurium, Strain/Indicator: TA100, Metabolic Activation: Rat, Liver, S-9, Phenobarbital and 6-naphthoflavone, Method: Preincubation): active; positive

Cc1cc(C)n(-c2nnc(NN)c3c2[nH]c2ccccc23)n1
mutagenic call [1]: inactive; negative
mutagenic call (Test System: AMES SALMONELLA TYPHIMURIUM, Strain/Indicator: TA98, Metabolic Activation: RAT, LIVER, S-9, AROCLOR 1254 (4 OR 10%), Method: PREINCUBATION): inactive; negative
mutagenic call [4]: inactive; negative
mutagenic call (Test System: AMES SALMONELLA TYPHIMURIUM, Strain/Indicator: TA100, Metabolic Activation: RAT, LIVER, S-9, AROCLOR 1254 (4 OR 10%), Method: PREINCUBATION): inactive; negative
mutagenic call (Test System: AMES SALMONELLA TYPHIMURIUM, Strain/Indicator: TA1535, Metabolic Activation: NONE, Method: PREINCUBATION): inactive; negative
mutagenic call (Test System: AMES SALMONELLA TYPHIMURIUM, Strain/Indicator: TA1535, Metabolic Activation: RAT, LIVER, S-9, AROCLOR 1254 (10%), Method: PREINCUBATION): inactive; negative
mutagenic call (Test System: AMES SALMONELLA TYPHIMURIUM, Strain/Indicator: TA1537, Metabolic Activation: NONE, Method: PREINCUBATION): inactive; negative
mutagenic call (Test System: AMES SALMONELLA TYPHIMURIUM, Strain/Indicator: TA1537, Metabolic Activation: RAT, LIVER, S-9, AROCLOR 1254 (4 OR 10%), Method: PREINCUBATION): inactive; negative

O=C[C@H](O)[C@@H](O)[C@H](O)[C@H](O)CO
mutagenic call (Test System: AMES SALMONELLA TYPHIMURIUM, Strain/Indicator: TA98, Metabolic Activation: RAT LIVER S-9, CHLOROPHENE, Method: STANDARD PLATE (COMPOUND HEATED AT 250 DEGREES CELSIUS FOR 20 MIN)): inactive; negative
mutagenic call [8]: active; positive

C=CCN1CCC=C2c3nc(NC(C)=O)sc3CCC21 (stereo not given)
mutagenic call [7]: inactive; negative

Source: PubChem BioAssay AID1259407 (Chemical Carcinogenesis Research Information System (CCRIS), 2018)
